This is an account of results in patent US6518423B1, “Benzopiperidine derivatives” (Eisai Co., Ltd., priority 1996, dated 2003).

For one assay, the system named is ICAM-1. The assay is described as follows: Effect on the expression of ICAM-1 in human cultured umbilical cord endothelial cells (TNF-stimulated, ELISA). The class given is cell-based. Conditions: 1 ng/ml TNF, expression with TNF = 100%, without TNF = 0%, read-out: IC50 (50% inhibitory concentration of ICAM-1 expression). How it is done: Effect on the Expression of ICAM-1 in Human Cultured Umbilical Cord Endothelial Cells
Examination was made on the effect on the expression of ICAM-1 which is one of adhesion molecules expressed on the surfaces of cultured endothelia cells. The endotheliall cells were suspended in an MCDB131 medium containing 10% of fetal calf serum and pipetted into a 96-well culture plate (10,000 cells/well). After culturing at 37° C. in the presence of 5% of carbon dioxide for 2 days, 1 ng/ml of a tumor necrosis factor (TNF) and a test compound were added to the 96-well culture plate. After culturing at 37° C. in the presence of 5% of carbon dioxide for 4 hours and then washing with a phosphate buffer once, 0.05% of glutaraldehyde was added thereto. Six minutes thereafter, the plate was washed twice and 1 μg/ml of a mouse antihuman ICAM-1 antibody was added thereto. After allowing to stand for 1 hour, it was washed twice and a peroxidase-labeled sheep antimouse immunoglobulin antibody was added thereto. After allowing to stand for 1 hour, it was washed twice and a color developing substrate for peroxidase (o-phenylenediamine) was added thereto. After allowing to stand at room temperature for 10 minutes, a 1 N solution of sulfuric acid was added thereto. Then the absorbance at 490 nm was measured with the use of an absorptiometer for 96-well plate. The value thus obtained was employed as an indication of the ICAM-1 expression.
(An ELISA detects its analyte on a solid surface through an enzyme-linked reagent.)

For assay [1], the system named is Carrageenin-induced Rat Pleurisy. The assay is described as follows: Effect on carrageenin-induced rat pleurisy. The class given is in vivo. Conditions: Rattus norvegicus, po, 5 h, total cell count in pleural exudate 5 hours after carrageenin, read-out: Inhibitory ratio (%); for inhibition in vivo at 10 mg/kg: dose 10 mg/kg orally 30 minutes before carrageenin; for inhibition in vivo at 30 mg/kg: dose 30 mg/kg orally 30 minutes before carrageenin. How it is done:
Effect on Carrageenin-induced Rat Pleurisy
200 μl of a carrageenin solution (10 mg/ml in physiological saline) was intrathoracically injected into rats. Five hours thereafter, blood of the animals was collected from the abdominal aorta under etherization so as to induce death from blood loss. The exudate was taken up from the thoracic cavity and weighed with a single-pan balance. Further, the exudate was diluted with Turk's solution and the cells were counted by using a counting chamber. Next the total cell count was calculated by multiplying the cell count by the exudate volume. Thus the inhibitory ratio was calculated by taking the total cell count with the administration of carrageenin as 100% and that with the administration of physiological saline as 0%. Each test compound was suspended in a 0.5% solution of methylcellulose and orally administered at a dose of 5 ml/kg 30 minutes before the injection of carrageenin.

Setting [2] is: Homo sapiens, Endothelial cell, 4 h.

Structures are written as SMILES. Structures can show the parent of a compound that is named as a salt. Where two headings read alike, the source gives them in different places.

`CC1CC(C)C2CN(Cc3ccc4c(c3)Nc3nccnc3S4)CC1C2CCC(=O)O` (stereo not drawn) [Example 101]: the IC50 in the assay with ICAM-1 (setting [2]) came to 2600 nM. Also, in assay [1], the inhibition in vivo at 10 mg/kg is 48%.

Regarding `O=C(O)C1CC2CC3CN(Cc4ccc5c(c4)Nc4nccnc4S5)CC(C2)C31` (stereo not drawn) [Example 106], in the assay on ICAM-1 (setting [2]), the IC50 stood at 2800 nM. In assay [1], the inhibition in vivo at 10 mg/kg came to 46%.

As for `O=C(O)c1ccc(OCCC2C3CCCC2CN(Cc2ccc4c(c2)Nc2nccnc2S4)C3)cc1` (stereo not drawn) [Example 121], the IC50 with ICAM-1 (setting [2]) was 7400 nM. Besides, the inhibition in vivo at 10 mg/kg in assay [1] was 70%.

For `CS(=O)(=O)NC1CCN(Cc2ccc3c(c2)Nc2nccnc2S3)CC1` [Example 402], the IC50 with ICAM-1 (setting [2]) amounted to 320 nM. Also, the inhibition in vivo at 10 mg/kg in assay [1] was 57%.

As for `CNS(=O)(=O)NC1CCN(Cc2ccc3c(c2)Nc2nccnc2S3)CC1` [Example 403], the IC50 with ICAM-1 (setting [2]) stood at 340 nM. The inhibition in vivo at 10 mg/kg in assay [1] turned out to be 35%.

In the case of `CN(C)S(=O)(=O)NC1CCN(Cc2ccc3c(c2)Nc2nccnc2S3)CC1` [Example 460], the IC50 with ICAM-1 (setting [2]) is 320 nM. For the same compound, the inhibition in vivo at 10 mg/kg in assay [1] amounted to 57%.

Regarding `O=C(O)Cc1ccc(C2CCN(Cc3ccc4c(c3)Nc3nccnc3S4)CC2)cc1` [Example 659], the IC50 in the assay on ICAM-1 (setting [2]) was found to be 710 nM. In assay [1], the inhibition in vivo at 10 mg/kg was found to be 20%.

Take `O=C(O)CC1CC2(CCN(Cc3ccc4c(c3)Nc3nccnc3S4)CC2)C1` [Example 677]: the IC50 with ICAM-1 (setting [2]) is 900 nM. In addition, the inhibition in vivo at 10 mg/kg in assay [1] was found to be 76%.

For the compound `O=C(O)C1CC2(CCN(Cc3ccc4c(c3)Nc3nccnc3S4)CC2)C1` [Example 686], the IC50 with ICAM-1 (setting [2]) came out at 900 nM. The inhibition in vivo at 10 mg/kg in assay [1] was 71%.

In the case of `O=C(O)C1(C2CCN(Cc3ccc4c(c3)Nc3nccnc3S4)CC2)CC1` [Example 698], the IC50 in the assay with ICAM-1 (setting [2]) came to 490 nM. The inhibition in vivo at 10 mg/kg in assay [1] came to 26%.

On to `O=C(O)CC1CCC2CN(Cc3ccc4c(c3)Nc3nccnc3S4)CC2C1` (stereo not drawn) [Example 717], for which the IC50 in the assay on ICAM-1 (setting [2]) came out at 1150 nM. For the same compound, the inhibition in vivo at 10 mg/kg in assay [1] came out at 32%.

On to `CC(CCC1CCN(Cc2ccc3c(c2)Nc2nccnc2S3)CC1)C(=O)O` (stereo not drawn) [Example 729], for which, in the assay on ICAM-1 (setting [2]), the IC50 worked out at 1300 nM. The inhibition in vivo at 10 mg/kg in assay [1] was 64%.

As for `c1cncc(NCc2ccc3c(c2)Nc2nccnc2S3)c1` [Example 901, 8-[N-(Pyridin-3-yl)aminomethyl]-10H-pyrazino[2,3-b][1,4]benzothiazine], in the assay with ICAM-1 (setting [2]), the IC50 turned out to be 1800 nM. Also, in assay [1], the inhibition in vivo at 30 mg/kg turned out to be 38%.

As to `OC(c1cccnc1)c1ccc2c(c1)Nc1nccnc1S2` (stereo not drawn) [Example 1145], the IC50 with ICAM-1 (setting [2]) amounted to 770 nM. The inhibition in vivo at 10 mg/kg in assay [1] was determined as 29%.

On to `NCc1ccc2c(c1)Nc1nccnc1S2` [Example 1241, 8-(Aminomethyl)10H-pyrazino[2,3-b][1,4]benzothiazine hydrochloride], for which the IC50 with ICAM-1 (setting [2]) was found to be 3600 nM. The inhibition in vivo at 100 mg/kg in assay [1] (dose 100 mg/kg orally 30 minutes before carrageenin) amounted to 28%.

As for `CC(C)(O)c1ncnc2c1ncn2Cc1ccc2c(c1)Nc1nccnc1S2` [Example 1439], in the assay on ICAM-1 (setting [2]), the IC50 amounted to 490 nM. Besides, the inhibition in vivo at 30 mg/kg in assay [1] came to 77%.

Turning to `N#C/N=C(\N)Cc1ccc2c(c1)Nc1nccnc1S2` [Example 1487, N^2-Cyano-(10H-pyrazino[2,3-b][1,4]benzothiazin-8-yl)acetamidine], the IC50 in the assay on ICAM-1 (setting [2]) was 670 nM. Besides, the inhibition in vivo at 30 mg/kg in assay [1] came to 32%.

Regarding `O=C(O)CC1C2CCCC1CN(Cc1ccc3c(c1)Nc1nccnc1S3)C2` (stereo not drawn) [Example 1568, (endo,anti)-[3-(10H-Pyrazino[2,3-b][1,4]benzothiazin-8-ylmethyl)-3-azabicyclo[3.3.1]non-9-yl]acetic acid], the IC50 in the assay on ICAM-1 (4 hours) is 500 nM. In addition, in assay [1], the inhibition in vivo at 30 mg/kg was 50%.
